According to patent US9707233B2, “Heterocyclylamines as PI3K inhibitors” (Incyte Corporation, priority 2011, dated 2017):

Biological target: PI3Kδ (p110δ/p85α) (Homo sapiens (Human), UniProt O00329)
Assay: PI3Kδ scintillation proximity assay (Example A3)
Assay type: biochemical
Settings: 20 μM ATP, 20 μM PIP2, 4 nM PI3Kδ; read-out: PI3Kδ SPA IC50
Description: [γ-^33P]ATP (10 mCi/mL) was purchased from Perkin-Elmer (Waltham, Mass.). […] PI3Kδ (p110δ/p85α) was purchased from Millipore (Bedford, Mass.). ATP, MgCl2, DTT, EDTA, MOPS and CHAPS were purchased from Sigma-Aldrich (St. Louis, Mo.). Wheat Germ Agglutinin (WGA) YSi SPA Scintillation Beads was purchased from GE healthcare life sciences (Piscataway, N.J.).
The kinase reaction was conducted in polystyrene 384-well matrix white plate from Thermo Fisher Scientific in a final volume of 25 μL. Inhibitors were first diluted serially in DMSO and added to the plate wells before the addition of other reaction components. The final concentration of DMSO in the assay was 0.5%. The PI3K assays were carried out at room temperature in 20 mM MOPS, pH 6.7, 10 mM MgCl2, 5 mM DTT and CHAPS 0.03%. Reactions were initiated by the addition of ATP, the final reaction mixture consisted of 20 μM PIP2, 20 μM ATP, 0.2 μCi [γ-^33P]ATP, 4 nM PI3Kδ. […] 25 mM EDTA, 400 μM ATP. The final concentration of SPA beads was 1.0 mg/mL. After the plate sealing, plates were shaken overnight at room temperature and centrifuged at 1800 rpm for 10 minutes, the radioactivity of the product was determined by scintillation counting on Topcount (Perkin-Elmer). IC50 determination was performed by fitting the curve of percent control activity versus the log of the inhibitor concentration using the GraphPad Prism 3.0 software.

Chain of PI3Kδ (p110δ/p85α) (O00329 whole entry): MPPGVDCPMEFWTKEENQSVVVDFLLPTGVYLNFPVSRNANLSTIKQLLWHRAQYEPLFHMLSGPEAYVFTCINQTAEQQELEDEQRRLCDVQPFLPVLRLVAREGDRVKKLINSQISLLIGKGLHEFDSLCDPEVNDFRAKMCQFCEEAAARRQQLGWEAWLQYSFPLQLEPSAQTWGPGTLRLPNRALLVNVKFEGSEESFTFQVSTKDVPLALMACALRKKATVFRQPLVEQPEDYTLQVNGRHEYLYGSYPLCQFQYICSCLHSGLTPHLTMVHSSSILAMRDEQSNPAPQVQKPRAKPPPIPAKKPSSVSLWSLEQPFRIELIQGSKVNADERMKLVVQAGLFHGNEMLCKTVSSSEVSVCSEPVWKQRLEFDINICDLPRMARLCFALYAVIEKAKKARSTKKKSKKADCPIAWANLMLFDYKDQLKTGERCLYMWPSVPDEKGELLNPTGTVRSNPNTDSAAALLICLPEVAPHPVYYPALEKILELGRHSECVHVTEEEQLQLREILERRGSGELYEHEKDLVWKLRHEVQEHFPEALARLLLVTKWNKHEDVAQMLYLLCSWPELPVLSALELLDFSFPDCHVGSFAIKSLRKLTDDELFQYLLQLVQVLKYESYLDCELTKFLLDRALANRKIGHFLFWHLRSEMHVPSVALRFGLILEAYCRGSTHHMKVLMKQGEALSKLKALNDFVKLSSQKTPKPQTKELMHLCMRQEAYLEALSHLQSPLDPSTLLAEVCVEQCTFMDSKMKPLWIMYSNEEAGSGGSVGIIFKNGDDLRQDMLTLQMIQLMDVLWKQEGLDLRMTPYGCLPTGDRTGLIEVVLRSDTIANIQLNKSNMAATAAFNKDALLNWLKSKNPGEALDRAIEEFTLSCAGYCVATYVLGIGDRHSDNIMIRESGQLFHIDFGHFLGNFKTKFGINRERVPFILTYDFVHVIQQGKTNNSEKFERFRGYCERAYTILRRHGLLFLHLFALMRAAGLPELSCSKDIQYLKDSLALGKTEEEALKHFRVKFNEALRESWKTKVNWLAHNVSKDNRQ
Chain of PI3Kδ (p110δ/p85α) (P27986 whole entry partner): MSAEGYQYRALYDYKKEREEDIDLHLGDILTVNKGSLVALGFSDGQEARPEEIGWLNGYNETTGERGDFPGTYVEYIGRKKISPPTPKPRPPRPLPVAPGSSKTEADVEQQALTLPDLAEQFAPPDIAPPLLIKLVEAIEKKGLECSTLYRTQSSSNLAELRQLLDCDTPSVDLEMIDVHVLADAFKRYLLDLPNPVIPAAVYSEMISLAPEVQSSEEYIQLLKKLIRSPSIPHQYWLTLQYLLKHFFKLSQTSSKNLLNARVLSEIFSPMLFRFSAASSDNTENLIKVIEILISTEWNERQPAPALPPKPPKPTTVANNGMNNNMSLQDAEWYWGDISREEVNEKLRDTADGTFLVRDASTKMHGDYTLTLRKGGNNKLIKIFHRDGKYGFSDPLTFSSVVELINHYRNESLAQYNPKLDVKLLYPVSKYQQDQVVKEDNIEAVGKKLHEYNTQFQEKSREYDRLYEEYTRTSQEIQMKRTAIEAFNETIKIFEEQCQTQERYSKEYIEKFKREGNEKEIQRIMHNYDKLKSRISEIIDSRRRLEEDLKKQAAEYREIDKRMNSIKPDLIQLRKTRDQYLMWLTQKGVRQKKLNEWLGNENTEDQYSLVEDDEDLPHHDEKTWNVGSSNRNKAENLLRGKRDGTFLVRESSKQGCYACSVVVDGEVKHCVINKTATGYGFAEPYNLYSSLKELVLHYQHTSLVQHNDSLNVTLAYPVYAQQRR

IC50 [nM]	SMILES
≤ 10	COc1c(C(C)n2nc(C)c3c(N)ncnc32)cc(Cl)c(C)c1-c1cncc(S(C)(=O)=O)c1 (single isomer, unassigned) [Example 172, 1-(1-(5-chloro-2-methoxy-4-methyl-3-(5-(methylsulfonyl)pyridin-3-yl)phenyl)ethyl)-3-methyl-1H-pyrazolo[3,4-d]pyrimidin-4-amine]
≤ 10	COc1c(C(C)n2nc(C)c3c(N)ncnc32)cc(Cl)c(F)c1C1CN(CC(C)(C)O)C1 (racemic) [Example 70, 1-(3-{3-[1-(4-Amino-3-methyl-1H-pyrazolo[3,4-d]pyrimidin-1-yl)ethyl]-5-chloro-6-fluoro-2-methoxyphenyl}azetidin-1-yl)-2-methylpropan-2-ol]
≤ 10	COc1c(C(C)n2nc(C)c3c(N)ncnc32)cc(Cl)c(C)c1-c1ccnc(N(C)C)c1 (single isomer, unassigned) [Example 186, 1-(1-(5-chloro-3-(2-(dimethylamino)pyridin-4-yl)-2-methoxy-4-methylphenyl)ethyl)-3-methyl-1H-pyrazolo[3,4-d]pyrimidin-4-amine]
≤ 10	CNC(=O)c1ccc(-c2c(C)c(Cl)cc(C(C)n3nc(C)c4c(N)ncnc43)c2OC)cn1 (single isomer, unassigned) [Example 173, 5-(3-(1-(4-amino-3-methyl-1H-pyrazolo[3,4-d]pyrimidin-1-yl)ethyl)-5-chloro-2-methoxy-6-methylphenyl)-N-methylpicolinamide]
≤ 10	COc1c(C(C)n2nc(C)c3c(N)ncnc32)cc(Cl)c(C#N)c1C1CN(CC2CC2)C1 (single isomer, unassigned) [Example 266, 4-[1-(4-Amino-3-methyl-1H-pyrazolo[3,4-d]pyrimidin-1-yl)ethyl]-6-chloro-2-[1-(cyclopropylmethyl)azetidin-3-yl]-3-methoxybenzonitrile]
≤ 10	CCOc1c(C(C)n2nc(C)c3c(N)ncnc32)cc(Cl)c(C#N)c1-c1cncc(C(=O)N(C)C)c1 (single isomer, unassigned) [Example 331, 5-{3-[1-(4-amino-3-methyl-1H-pyrazolo[3,4-d]pyrimidin-1-yl)ethyl]-5-chloro-6-cyano-2-ethoxyphenyl}-N,N-dimethylnicotinamide]
≤ 10	CCOc1c(C(C)n2nc(C)c3c(N)ncnc32)cc(Cl)c(C#N)c1C1CNC(=O)O1 (single isomer, unassigned) [323 (4th peak), 4-[1-(4-amino-3-methyl-1H-pyrazolo[3,4-d]pyrimidin-1-yl)ethyl]-6-chloro-3-ethoxy-2-(2-oxo-1,3-oxazolidin-5-yl)benzonitrile]
≤ 10	COc1c(C(C)n2nc(C)c3c(N)ncnc32)cc(Cl)c(Cl)c1C1CN(CC#N)C1 (single isomer, unassigned) [Example 305, (3-{3-[1-(4-Amino-3-methyl-1H-pyrazolo[3,4-d]pyrimidin-1-yl)ethyl]-5,6-dichloro-2-methoxyphenyl}azetidin-1-yl)acetonitrile]
≤ 10	CCOc1c(C(C)n2nc(C)c3c(N)ncnc32)cc(Cl)c(C#N)c1C1CN(C(=O)N(C)C)C1 (single isomer, unassigned) [Example 259, 3-{3-[1-(4-Amino-3-methyl-1H-pyrazolo[3,4-d]pyrimidin-1-yl)ethyl]-5-chloro-6-cyano-2-ethoxyphenyl}-N,N-dimethylazetidine-1-carboxamide]
≤ 10	COc1c(C(C)n2ccc(=O)c3c(N)ncnc32)cc(Cl)c(C)c1-c1cncc(C#N)c1 (racemic) [Example 27, 5-{3-[1-(4-Amino-5-oxopyrido[2,3-d]pyrimidin-8(5H)-yl)ethyl]-5-chloro-2-methoxy-6-methylphenyl}nicotinonitrile bis(trifluoroacetate)]
≤ 10	CCOc1c(C(C)n2nc(C)c3c(N)ncnc32)cc(Cl)c(C#N)c1C1CN(CC)C1 (stereo not shown) [Example 214, 4-[1-(4-Amino-3-methyl-1H-pyrazolo[3,4-d]pyrimidin-1-yl)ethyl]-6-chloro-3-ethoxy-2-(1-ethylazetidin-3-yl)benzonitrile]
≤ 10	COc1c(C(C)n2nc(C)c3c(N)ncnc32)cc(Cl)c(C)c1-c1cnc(N)nc1 (single isomer, unassigned) [Example 169, 1-(1-(3-(2-aminopyrimidin-5-yl)-5-chloro-2-methoxy-4-methylphenyl)ethyl)-3-methyl-1H-pyrazolo[3,4-d]pyrimidin-4-amine]
≤ 10	COc1c(C(C)n2nc(C)c3c(N)ncnc32)cc(Cl)c(C#N)c1C1CN(CC(C)(C)O)C1 (stereo not shown) [Example 271, 4-[1-(4-Amino-3-methyl-1H-pyrazolo[3,4-d]pyrimidin-1-yl)ethyl]-6-chloro-2-[1-(2-hydroxy-2-methylpropyl)azetidin-3-yl]-3-methoxybenzonitrile]
≤ 10	COc1c(C(C)n2nc(C)c3c(N)ncnc32)cc(Cl)c(C)c1-c1cncc(C(=O)N2CC(C#N)C2)c1 (stereo not shown) [Example 177, 1-[(5-{3-[1-(4-amino-3-methyl-1H-pyrazolo[3,4-d]pyrimidin-1-yl)ethyl]-5-chloro-2-methoxy-6-methylphenyl}pyridin-3-yl)carbonyl]azetidine-3-carbonitrile]
≤ 10	CCOc1c(C(C)n2nc(C)c3c(N)ncnc32)cc(Cl)c(C#N)c1C1CN(C(=O)NC(C)(C)C)C1 (single isomer, unassigned) [Example 255, 3-{3-[1-(4-Amino-3-methyl-1H-pyrazolo[3,4-d]pyrimidin-1-yl)ethyl]-5-chloro-6-cyano-2-ethoxyphenyl}-N-(tert-butyl)azetidine-1-carboxamide]
≤ 10	CCOc1c(C(C)n2nc(C)c3c(N)ncnc32)cc(Cl)c(C)c1-c1cncc(S(C)(=O)=O)c1 (stereo not shown) [Example 198, 1-(1-(5-chloro-2-ethoxy-4-methyl-3-(5-(methylsulfonyl)pyridin-3-yl)phenyl)ethyl)-3-methyl-1H-pyrazolo[3,4-d]pyrimidin-4-amine]
10 to 50	COc1c(C(C)n2nc(C)c3c(N)ncnc32)cc(C#N)c(C)c1-c1ccnc(C(=O)N(C)CCO)c1 (racemic) [Example 40, 4-{3-[1-(4-amino-3-methyl-1H-pyrazolo[3,4-d]pyrimidin-1-yl)ethyl]-5-cyano-2-methoxy-6-methylphenyl}-N-(2-hydroxyethyl)-N-methylpyridine-2-carboxamide]
≤ 10	CCOc1c(C(C)n2nc(C)c3c(N)ncnc32)cc(Cl)c(C#N)c1C1CNC(=O)O1 (single isomer, unassigned) [323 (1st peak), 4-[1-(4-amino-3-methyl-1H-pyrazolo[3,4-d]pyrimidin-1-yl)ethyl]-6-chloro-3-ethoxy-2-(2-oxo-1,3-oxazolidin-5-yl)benzonitrile]
≤ 10	CCOc1c(C(C)n2nc(C)c3c(N)ncnc32)cc(C)c(C#N)c1C1CN(CC(C)(C)O)C1 (single isomer, unassigned) [Example 321, 4-[1-(4-amino-3-methyl-1H-pyrazolo[3,4-d]pyrimidin-1-yl)ethyl]-3-ethoxy-2-[1-(2-hydroxy-2-methylpropyl)azetidin-3-yl]-6-methylbenzonitrile]
≤ 10	CCOc1c(C(C)n2nc(C)c3c(N)ncnc32)cc(Cl)c(C#N)c1C1CN(C(C)(C)C(=O)NC)C1 (single isomer, unassigned) [Example 240, 2-(3-{3-[1-(4-Amino-3-methyl-1H-pyrazolo[3,4-d]pyrimidin-1-yl)ethyl]-5-chloro-6-cyano-2-ethoxyphenyl}azetidin-1-yl)-N,2-dimethylpropanamide]
≤ 10	COc1c(C(C)n2nc(C)c3c(N)ncnc32)cc(Cl)c(C)c1C1CN(CC2CC2)C1 (racemic) [Example 4, 1-(1-{5-Chloro-3-[1-(cyclopropylmethyl)azetidin-3-yl]-2-methoxy-4-methylphenyl}ethyl)-3-methyl-1H-pyrazolo[3,4-d]pyrimidin-4-amine bis(trifluoroacetate)]
≤ 10	CNC(=O)c1ccc(-c2c(C)c(Cl)cc(C(C)n3ccc(=O)c4c(N)ncnc43)c2OC)cn1 (racemic) [Example 33, 5-{3-[1-(4-amino-5-oxopyrido[2,3-d]pyrimidin-8(5H)-yl)ethyl]-5-chloro-2-methoxy-6-methylphenyl}-N-methylpyridine-2-carboxamide bis(trifluoroacetate)]
≤ 10	COc1c(C(C)n2nc(C)c3c(N)ncnc32)cc(Cl)c(C#N)c1-c1cncc(S(C)(=O)=O)c1 (single isomer, unassigned) [Example 332, 4-[1-(4-amino-3-methyl-1H-pyrazolo[3,4-d]pyrimidin-1-yl)ethyl]-6-chloro-3-methoxy-2-[5-(methylsulfonyl)pyridin-3-yl]benzonitrile]
≤ 10	CCOc1c(C(C)n2nc(C)c3c(N)ncnc32)cc(Cl)c(C#N)c1C1CN(S(C)(=O)=O)C1 (stereo not shown) [Example 248, 4-[1-(4-Amino-3-methyl-1H-pyrazolo[3,4-d]pyrimidin-1-yl)ethyl]-6-chloro-3-ethoxy-2-[1-(methylsulfonyl)azetidin-3-yl]benzonitrile]

SMILES	IC50 [nM]
CCN1CC(c2c(Cl)c(Cl)cc(C(C)n3nc(C)c4c(N)ncnc43)c2OC)C1 (single isomer, unassigned) [Example 298, 1-{1-[4,5-Dichloro-3-(1-ethylazetidin-3-yl)-2-methoxyphenyl]ethyl}-3-methyl-1H-pyrazolo[3,4-d]pyrimidin-4-amine]	≤ 10
